The subject of data set [1] is Plasma. Description: Free plasma concentration in CD-1 mouse at 3 mg/kg, iv and 10 mg/kg, po measured at 4 hrs post dose. It counts as ADME, organism-based. As to conditions: in vivo.
A short description of data set [2]: Systemic clearance in CD-1 mouse at 3 mg/kg, iv and 10 mg/kg, po. It is filed as ADME, organism-based. As to conditions: in vivo, read-out: CLH.
For a further data set, the system named is Mus musculus. Briefly: Unbound clearance in CD-1 mouse at 3 mg/kg, iv and 10 mg/kg, po. As to conditions: in vivo. It is filed as ADME, organism-based.
In data set [3] the test system is Plasma. Briefly: Free plasma concentration in CD-1 mouse at 3 mg/kg, iv and 10 mg/kg, po measured at 1 hr post dose. It counts as ADME, organism-based. As to conditions: in vivo.
The test system of data set [4] is Brain. Briefly: Free drug level in CD-1 mouse brain at 3 mg/kg, iv and 10 mg/kg, po measured at 1 hr post dose. It counts as ADME, organism-based. As to conditions: in vivo.
For data set [5], the system named is Brain. Description: Free drug level in CD-1 mouse brain at 3 mg/kg, iv and 10 mg/kg, po measured at 4 hrs post dose. It counts as ADME, organism-based. As to conditions: in vivo.
Data set [6] concerns the target T1, Beta-secretase 1 (Homo sapiens, UniProt P56817). Briefly: Inhibition of BACE1 in HEK293 cells expressing swedish double mutant APP assessed as amyloid beta (1 to 40) peptide level after 7 hrs by HTRF assay. It counts as cell-based.
Data set [7] concerns the target T1, Beta-secretase 1. Briefly: Inhibition of purified recombinant human BACE1 expressed in CHO cells assessed as uncleaved biotinylated sAPP after 2 hrs by HTRF assay.
The test system of data set [8] is MDR1 (human). Description: Efflux ratio of permeability from basolateral to apical side to apical to basolateral side in pig LLC-PK1 cells transfected with human MDR1 at 1 uM. It counts as ADME, cell-based, Sus scrofa. As to conditions: LLC-PK1.
For data set [9], the system named is MDR1 (human). Description: Apparent permeability from apical to basolateral side in pig LLC-PK1 cells transfected with human MDR1. It counts as ADME, cell-based, Sus scrofa. As to conditions: LLC-PK1.
Another data set concerns CHO. Description: Ratio of IC50 for cathepsin D purified from human spleen to IC50 for purified recombinant human BACE1 expressed in CHO cells.
Data set [10] in a line: Fraction unbound in CD-1 mouse plasma. It counts as ADME, cell-free.
Data set [11] in a line: Ratio of free drug level in brain of CD-1 mouse at 3 mg/kg, iv and 10 mg/kg, po measured at 4 hrs post dose to IC50 for BACE1 in HEK293 cells expressing swedish double mutant APP. It counts as ADME, organism-based. As to conditions: hek293, 4 h.
Data set [12] in a line: Ratio of free drug level in brain to plasma of CD-1 mouse at 3 mg/kg, iv and 10 mg/kg, po measured at 1 hr post dose. It is filed as ADME, organism-based. As to conditions: read-out: BPR.
Data set [13] in a line: Ratio of free drug level in brain of CD-1 mouse at 3 mg/kg, iv and 10 mg/kg, po measured at 1 hr post dose to IC50 for BACE1 in HEK293 cells expressing swedish double mutant APP. It counts as ADME, organism-based. As to conditions: hek293, 1 h.
Data set [14] in a line: Fraction unbound in CD-1 mouse brain. It is filed as ADME, tissue-based.
Data set [15] can be described thus: Ratio of free drug level in brain to plasma of CD-1 mouse brain at 3 mg/kg, iv and 10 mg/kg, po measured at 4 hrs post dose. As to conditions: read-out: BPR. It is filed as ADME, organism-based.

From ChEMBL document CHEMBL3352087 (J Med Chem, 2014) come the findings set out here.

T1 sequence (P56817 whole entry): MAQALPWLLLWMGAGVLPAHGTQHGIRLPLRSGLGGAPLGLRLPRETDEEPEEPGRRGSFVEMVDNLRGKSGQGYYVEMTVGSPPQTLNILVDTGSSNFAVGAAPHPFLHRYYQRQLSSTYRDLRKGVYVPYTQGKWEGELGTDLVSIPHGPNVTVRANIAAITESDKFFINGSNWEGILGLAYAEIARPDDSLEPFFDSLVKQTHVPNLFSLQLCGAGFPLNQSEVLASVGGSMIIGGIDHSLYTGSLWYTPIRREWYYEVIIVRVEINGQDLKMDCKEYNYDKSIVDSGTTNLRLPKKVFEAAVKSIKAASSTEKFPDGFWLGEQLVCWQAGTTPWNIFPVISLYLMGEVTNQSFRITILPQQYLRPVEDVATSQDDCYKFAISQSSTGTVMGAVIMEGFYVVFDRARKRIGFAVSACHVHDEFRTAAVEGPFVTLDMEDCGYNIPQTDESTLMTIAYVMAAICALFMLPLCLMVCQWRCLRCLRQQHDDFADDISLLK

Consider `CN1C(=O)[C@]2(N=C1N)c1cc(-c3cccnc3F)ccc1O[C@H]1CCOC[C@@H]12`, for which the “Cp(f)” value in the data set on Plasma [1] worked out at 75 nM; with Plasma [3], 320 nM. Also, the clearance in data set [2] was 70 mL/min/kg. The compound further yielded a CL free in the data set on Mus musculus of 330 mL/min/kg. Moreover, the Drug uptake with Brain [4] is recorded as 11 nM; in the data set on Brain [5] it was 8.4 nM.
Regarding `NC1=N[C@@]2(CO1)c1cc(-c3cccnc3F)ccc1O[C@@H]1CCCO[C@H]12`, the IC50 on Beta-secretase 1 [6] was found to be 759 nM; on Beta-secretase 1 [7], 1100 nM.
For `NC1=N[C@@]2(CS1)c1cc(-c3cccnc3F)ccc1O[C@@H]1CCCO[C@H]12`, the efflux ratio at 1 µM in the data set on MDR1 (human) [8] was 1.2. For the same compound, the concentration for half-maximal inhibition (IC50) at Beta-secretase 1 [6] stood at 550 nM; on Beta-secretase 1 [7] it was 810 nM. Also, the Papp A→B with MDR1 (human) [9] was 37 ×10⁻⁶ cm/s. Further, the Ratio IC50 in the data set with CHO is over 250.
Consider `C[C@]12CCCO[C@@H]1[C@]1(COC(N)=N1)c1cc(-c3cccc(C#N)c3)ccc1O2`, for which the Ratio IC50 in the data set on CHO came to 1300.
On to `C[C@]12CCCO[C@@H]1[C@]1(COC(N)=N1)c1cc(-c3cncc(Cl)c3)ccc1O2` (racemic), for which the efflux ratio at 1 µM in the data set on MDR1 (human) [8] was 7.1. The IC50 at Beta-secretase 1 [6] came out at 37 nM; on Beta-secretase 1 [7], 52 nM. Also, the Papp A→B with MDR1 (human) [9] amounted to 25 ×10⁻⁶ cm/s. In addition, the Ratio IC50 in the data set on CHO came to 2100.
In the case of `C[C@]12CCCO[C@@H]1[C@]1(COC(N)=N1)c1cc(-c3cccc(C#N)c3)ccc1O2` (racemic) [listing 1 of 2 here], the “Cp(f)” value in the data set on Plasma [1] worked out at 35 nM; with Plasma [3] it was 54 nM. Moreover, the efflux ratio at 1 µM in the data set with MDR1 (human) [8] is 3.2. In data set [2], the clearance was 34 mL/min/kg. Besides, the fraction unbound in data set [10] turned out to be 0.039; in data set [14] it was 0.013. For the same compound, the CL free in the data set with Mus musculus turned out to be 870 mL/min/kg. In addition, the Ratio was 0.075 in data set [11] and 0.13 in data set [13]. Also, the IC50 stood at 100 nM on Beta-secretase 1 [6] and 98 nM on Beta-secretase 1 [7]. In addition, in data set [12], the Kp uu at 1 h was 0.24. In addition, the Papp A→B with MDR1 (human) [9] amounted to 30 ×10⁻⁶ cm/s. For the same compound, the Kp uu at 4 h in data set [15] came out at 0.21. In addition, the figures for the Drug uptake in the data set with Brain [4] and with Brain [5] were 13 nM and 7.5 nM, respectively.
Turning to `C[C@]12CCCO[C@@H]1[C@]1(COC(N)=N1)c1cc(-c3cccc(C#N)c3)ccc1O2` (racemic) [listing 2 of 2 here], the Ratio IC50 in the data set on CHO stood at 840.
In the case of `CN1C(=O)[C@]2(N=C1N)c1cc(-c3cccnc3F)ccc1O[C@H]1CCCO[C@@H]12` (relative stereo), the “Cp(f)” value in the data set on Plasma [1] was found to be 36 nM; in the data set on Plasma [3], 120 nM. Moreover, the efflux ratio at 1 µM in the data set on MDR1 (human) [8] was 31. Besides, in data set [2], the clearance is 110 mL/min/kg. Also, the fraction unbound in data set [10] worked out at 0.18; in [14], 0.037. In addition, the CL free in the data set with Mus musculus was found to be 600 mL/min/kg. Besides, the Ratio worked out at 0.13 in [11] and 0.14 in data set [13]. The half-inhibitory concentration (IC50) at Beta-secretase 1 [6] was determined as 12 nM; on Beta-secretase 1 [7], 48 nM. Besides, the Kp uu at 1 h in [12] stood at 0.014. Further, the Papp A→B in the data set with MDR1 (human) [9] worked out at 6.8 ×10⁻⁶ cm/s. Also, the Kp uu at 4 h in [15] was 0.044. Besides, the Drug uptake in the data set on Brain [4] is 1.7 nM; in the data set with Brain [5], 1.6 nM. In addition, in the data set on CHO, the Ratio IC50 was 50.
As to `CN1C(=O)[C@]2(N=C1N)c1cc(-c3cccnc3F)ccc1O[C@@H]1CCCO[C@H]12` (relative stereo), the IC50 worked out at 1900 nM at Beta-secretase 1 [6] and 700 nM on Beta-secretase 1 [7]. In addition, the Ratio IC50 in the data set on CHO turned out to be 19.
`CN1C(=O)[C@]2(N=C1N)c1cc(-c3cccnc3F)ccc1O[C@@]1(C)CCCO[C@@H]12` (relative stereo): the efflux ratio at 1 µM in the data set with MDR1 (human) [8] was 110. Moreover, the figures for the IC50 at Beta-secretase 1 [6] and on Beta-secretase 1 [7] were 5.7 nM and 13 nM, respectively. Moreover, the Papp A→B in the data set on MDR1 (human) [9] is 5.3 ×10⁻⁶ cm/s. The Ratio IC50 with CHO was found to be 510.
On the same counts, the results for `CN1C(=O)[C@]2(N=C1N)c1cc(-c3cccnc3F)ccc1O[C@]1(C)CCCO[C@H]12` (relative stereo) are 31, 37 nM, 26 nM, 6 ×10⁻⁶ cm/s and 69.
As to `C[C@]12CCCO[C@@H]1[C@]1(COC(N)=N1)c1cc(-c3cccnc3F)ccc1O2` (relative stereo), the “Cp(f)” value in the data set on Plasma [1] is listed as 6.8 nM; in the data set on Plasma [3], 37 nM. For the same compound, the efflux ratio at 1 µM in the data set on MDR1 (human) [8] was determined as 6.2. Besides, the clearance in data set [2] was determined as 150 mL/min/kg. The results for the unbound share (fraction unbound) in data set [10] and in data set [14] were 0.11 and 0.04, respectively. Besides, the CL free with Mus musculus was 1300 mL/min/kg. Besides, the Ratio in [11] is 0.018; in [13] it was 0.1. Further, the IC50 at Beta-secretase 1 [6] is 60 nM; on Beta-secretase 1 [7], 76 nM. The Kp uu at 1 h in data set [12] turned out to be 0.16. Besides, the Papp A→B in the data set on MDR1 (human) [9] amounted to 29 ×10⁻⁶ cm/s. In data set [15], the Kp uu at 4 h stood at 0.16. The Drug uptake is listed as 6 nM in the data set on Brain [4] and 1.1 nM with Brain [5]. The Ratio IC50 with CHO was 430.
As to `C[C@@]12CCCO[C@H]1[C@]1(COC(N)=N1)c1cc(-c3cccnc3F)ccc1O2` (relative stereo), the efflux ratio at 1 µM in the data set on MDR1 (human) [8] is 4.8. Besides, the IC50 was found to be 130 nM on Beta-secretase 1 [6] and 210 nM at Beta-secretase 1 [7]. In the data set on MDR1 (human) [9], the Papp A→B stood at 33 ×10⁻⁶ cm/s. Moreover, in the data set on CHO, the Ratio IC50 turned out to be 48.
On the same counts, the results for `C[C@]12CCCO[C@@H]1[C@]1(CSC(N)=N1)c1cc(-c3cccnc3F)ccc1O2` (relative stereo) are 2, 86 nM, 27 nM, 31 ×10⁻⁶ cm/s and 890.
On the same counts, the results for `C[C@]12CCCO[C@@H]1[C@]1(CSC(N)=N1)c1cc(-c3cncc(Cl)c3)ccc1O2` (relative stereo) are 3.3, 48 nM, 51 nM, 12 ×10⁻⁶ cm/s and 1100.
In the same order, the values of `C[C@]12CCCO[C@@H]1[C@]1(COC(N)=N1)c1cc(-c3cc(F)cc(Cl)c3)ccc1O2` (relative stereo) are 1.7, 93 nM, 55 nM, 5.6 ×10⁻⁶ cm/s and 530.
Turning to `C[C@]12CCCO[C@@H]1[C@]1(CSC(N)=N1)c1cc(-c3cc(F)cc(Cl)c3)ccc1O2` (relative stereo), the efflux ratio at 1 µM in the data set on MDR1 (human) [8] was found to be 1.2. Further, the IC50 is 110 nM at Beta-secretase 1 [6] and 41 nM at Beta-secretase 1 [7]. Moreover, the Papp A→B in the data set with MDR1 (human) [9] came out at 1.4 ×10⁻⁶ cm/s. The Ratio IC50 in the data set with CHO amounted to 830.
In the same order, the values of `C[C@]12CCCO[C@@H]1[C@]1(CSC(N)=N1)c1cc(-c3cccc(C#N)c3)ccc1O2` (relative stereo) are 1.8, 140 nM, 41 nM, 14 ×10⁻⁶ cm/s and 680.
On to `C[C@]12CCCO[C@@H]1[C@]1(CSC(N)=N1)c1cc(-c3cncnc3)ccc1O2` (relative stereo), for which the efflux ratio at 1 µM in the data set with MDR1 (human) [8] amounted to 3.1. The values for the IC50 at Beta-secretase 1 [6] and on Beta-secretase 1 [7] were 81 nM and 56 nM, respectively. The apparent permeability from apical to basolateral (Papp A→B) in the data set on MDR1 (human) [9] was found to be 29 ×10⁻⁶ cm/s. Besides, in the data set with CHO, the Ratio IC50 stood at 1100.
In the case of `C[C@]12CCCO[C@@H]1[C@]1(COC(N)=N1)c1cc(-c3cncnc3)ccc1O2` (single isomer, unassigned), the efflux ratio at 1 µM in the data set with MDR1 (human) [8] was 9.8. Also, the concentration for half-maximal inhibition (IC50) on Beta-secretase 1 [6] is 56 nM; at Beta-secretase 1 [7], 89 nM. The apparent permeability from apical to basolateral (Papp A→B) with MDR1 (human) [9] was 23 ×10⁻⁶ cm/s. For the same compound, the Ratio IC50 in the data set on CHO is over 2200.
